Results reported in article PMC9532535 (Acta Pharmaceutica Sinica. B, 2022).

Tests used:
[1] = test system: Caco-2 monolayer; experiment: Transport across the Caco-2 monolayer; type: in vitro ADME; conditions: Caco-2 monolayer without Raji
[2] = ref [37]; cited from earlier work
[3] = Measurement of critical aggregation concentration; type: physicochemical; conditions: in water, 37 °C overnight, ACQ probe P2 fluorescence

Compound | transport of PTX in the Caco-2 monolayer [1] | plasma protein binding [2] | CAC (critical aggregation concentration) [3] [mmol/L]
CC(=O)O[C@H]1C(=O)[C@@]2(C)[C@H]([C@H](OC(=O)c3ccccc3)[C@]3(O)C[C@H](OC(=O)[C@H](O)[C@@H](NC(=O)c4ccccc4)c4ccccc4)C(C)=C1C3(C)C)[C@]1(OC(C)=O)CO[C@@H]1C[C@@H]2O [PTX, paclitaxel] | negligible | greater than 90% | –
CCCCCCCCCCCCCCCCCC(=O)[O-].C[N+](C)(C)CCO [Choline stearate] | – | – | 0.37 ± 0.02
Choline oleate | – | – | 0.19 ± 0.01
